Assay results: patent US8217042B2, “Pyridopyrazines and their use as modulators of kinases” (Zentaris GmbH, priority 2005, dated 2012)

How the values were obtained:
[1] = biological target: T1, PI3Kalpha (Homo sapiens, UniProt P42336); experiment: Cell-free kinase assay (ALPHA technology), PI3K-ALPHA; assay type: biochemical; conditions: 100 μM ATP, recombinant human kinase
T1 construct: in some cases as full-length kinases, in some cases as truncated fragments; purchased Upstate 14-602
In short: (§1)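 Recombinant GST- or His-tagged kinases (full-length or kinase-domain fragments); ALPHA bead detection read after overnight incubation. PI3Kalpha: 1 ng enzyme, 100 μM ATP, 20 μM PIP2, 1 h, pH 7.4 Hepes buffer, GST:Grp1 with biotinylated PIP3 detection; Erk2 read via anti-phospho-MBP. % inhibition versus no-ATP/no-substrate and no-compound controls, giving IC50.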

[2] = test system: Jnk1 + Jnk2; experiment: Cell-free kinase assay (ALPHA technology), Jnk1 + Jnk2; assay type: biochemical; conditions: at 10 μM or 100 μM* ATP, recombinant human kinases
[3] = test system: Hct116; experiment: XTT assay, anti-proliferative action, Hct116; assay type: cell-based; conditions: Homo sapiens, HCT-116, 45 h, Hct116 cells, 45 h incubation
Description: (§2) The principle of this test is based on the intracellular reduction of the tetrazolium dye XTT (sodium 3′-[1-(phenylaminocarbonyl)-3,4-tetrazolium]bis(4-methoxy-6-nitro)benzenenesulphonic acid, Sigma) to a formazan dye by mitochondrial dehydrogenases.
(§3) The dye is formed only by metabolically active cells; its photometrically measurable intensity is a quantitative indicator for the presence of living cells. The reduction in the dye formation as a result of incubation of the cells with substances serves as a parameter for the anti-proliferative action.
(§4) The tumour cell lines (ATCC) were seeded in 96-well microtitre plates in a defined cell count (5000 cells/well for BxPC3 and Hct116; 10 000 cells/well for MDA MB468), and then incubated overnight in an incubator at 37° C., 5% CO2 and 95% air humidity. The test substances were made up as stock solutions (10 mM) in DMSO. […] The cell plates were then incubated for 45 h in an incubator at 37° C., 5% CO2 and 95% air humidity.
(§5) For the detection reaction, the XTT substrate was admixed with PMS (N-methyldibenzopyrazine methylsulphate, Sigma) and added to the cells, so as to result in a final concentration of 325 μg of XTT/ml and 2.5 μg PMS/ml. The mixture was then incubated for 3 h at 37° C., 95% air humidity. Subsequently the formazan salt formed by cellular dehydrogenases was quantified at an absorption of 490 nm.
(§6) The evaluation of the % inhibition values was done by means of the following formula from the values for the optical densities measured in each case at 490 nm:
(§7) The controls were determined 8 times each, the substance samples twice each. 0% control contained no cells; the 100% control contained no test substance. The EC50 values were determined with GraphPadPrism.

[4] = biological target: T2, Erk2; experiment: Cell-free kinase assay (ALPHA technology), Erk2-ALPHA; assay type: biochemical; conditions: 10 μM ATP, recombinant human kinase
T2 construct: in some cases as full-length kinases, in some cases as truncated fragments; purchased Upstate 14-173
In short: as §1

[5] = test system: MDA-MB468; experiment: XTT assay, anti-proliferative action, MDA-MB468; assay type: cell-based; conditions: Homo sapiens, MDA-MB-468, 45 h, MDA-MB468 cells, 45 h incubation
Description: as §2, §3, §4, §5, §6, §7

T2 sequence (P63085 whole entry, the tested form may be a part): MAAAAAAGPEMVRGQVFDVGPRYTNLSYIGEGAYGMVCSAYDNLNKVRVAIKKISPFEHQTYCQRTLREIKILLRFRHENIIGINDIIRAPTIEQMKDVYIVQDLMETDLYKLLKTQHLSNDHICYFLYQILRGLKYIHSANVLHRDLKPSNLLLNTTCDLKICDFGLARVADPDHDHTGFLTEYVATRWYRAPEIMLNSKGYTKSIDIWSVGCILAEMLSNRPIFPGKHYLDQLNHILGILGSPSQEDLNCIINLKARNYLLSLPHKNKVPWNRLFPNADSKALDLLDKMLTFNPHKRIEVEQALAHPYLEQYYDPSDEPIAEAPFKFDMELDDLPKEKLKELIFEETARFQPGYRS
T1 sequence (P42336 whole entry, the tested form may be a part): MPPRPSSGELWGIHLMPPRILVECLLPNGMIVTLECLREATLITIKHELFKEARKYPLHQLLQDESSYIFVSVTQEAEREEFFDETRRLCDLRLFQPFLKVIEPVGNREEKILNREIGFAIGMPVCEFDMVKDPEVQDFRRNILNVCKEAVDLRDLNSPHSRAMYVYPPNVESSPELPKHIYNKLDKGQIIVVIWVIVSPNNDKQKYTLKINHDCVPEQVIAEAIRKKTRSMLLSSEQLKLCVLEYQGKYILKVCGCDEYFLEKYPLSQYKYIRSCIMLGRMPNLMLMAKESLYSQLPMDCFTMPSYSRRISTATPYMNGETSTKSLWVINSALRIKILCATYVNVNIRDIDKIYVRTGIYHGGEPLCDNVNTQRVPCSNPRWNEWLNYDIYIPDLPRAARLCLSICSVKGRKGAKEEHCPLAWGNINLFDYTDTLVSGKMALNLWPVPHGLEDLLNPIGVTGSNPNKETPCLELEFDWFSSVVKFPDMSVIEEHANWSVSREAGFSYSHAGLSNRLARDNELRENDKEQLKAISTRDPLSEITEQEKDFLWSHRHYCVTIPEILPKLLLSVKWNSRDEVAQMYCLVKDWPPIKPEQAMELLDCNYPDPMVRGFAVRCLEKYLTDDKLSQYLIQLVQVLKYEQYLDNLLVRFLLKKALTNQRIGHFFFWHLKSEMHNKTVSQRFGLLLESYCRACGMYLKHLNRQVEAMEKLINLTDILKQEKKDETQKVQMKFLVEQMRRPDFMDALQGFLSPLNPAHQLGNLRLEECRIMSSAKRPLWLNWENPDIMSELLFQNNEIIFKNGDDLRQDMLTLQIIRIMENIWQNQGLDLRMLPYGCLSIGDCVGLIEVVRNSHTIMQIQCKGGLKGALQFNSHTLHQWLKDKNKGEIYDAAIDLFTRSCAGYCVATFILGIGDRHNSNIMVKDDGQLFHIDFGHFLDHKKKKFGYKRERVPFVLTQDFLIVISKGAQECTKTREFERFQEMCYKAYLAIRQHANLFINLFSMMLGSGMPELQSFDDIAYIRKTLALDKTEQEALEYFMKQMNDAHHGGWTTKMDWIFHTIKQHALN
T1 sequence (P27986 whole entry partner, the tested form may be a part): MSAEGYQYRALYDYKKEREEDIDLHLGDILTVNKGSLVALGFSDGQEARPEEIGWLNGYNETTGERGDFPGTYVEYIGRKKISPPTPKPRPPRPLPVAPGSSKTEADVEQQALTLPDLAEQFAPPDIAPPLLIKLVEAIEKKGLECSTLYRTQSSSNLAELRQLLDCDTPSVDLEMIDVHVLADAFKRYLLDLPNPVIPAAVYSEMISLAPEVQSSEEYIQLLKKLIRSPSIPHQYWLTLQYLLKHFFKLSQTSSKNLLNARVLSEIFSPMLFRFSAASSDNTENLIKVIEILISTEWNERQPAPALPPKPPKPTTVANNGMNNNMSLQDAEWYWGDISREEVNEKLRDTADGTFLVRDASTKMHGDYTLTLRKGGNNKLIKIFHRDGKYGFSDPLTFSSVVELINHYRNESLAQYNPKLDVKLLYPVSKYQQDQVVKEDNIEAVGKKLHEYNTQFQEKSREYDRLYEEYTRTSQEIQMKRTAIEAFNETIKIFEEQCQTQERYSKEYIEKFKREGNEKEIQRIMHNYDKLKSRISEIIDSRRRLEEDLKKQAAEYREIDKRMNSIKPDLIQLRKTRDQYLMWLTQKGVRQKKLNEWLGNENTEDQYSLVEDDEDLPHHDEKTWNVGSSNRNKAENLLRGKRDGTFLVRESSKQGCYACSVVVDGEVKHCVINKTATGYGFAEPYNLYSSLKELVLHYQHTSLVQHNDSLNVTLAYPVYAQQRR

- melting point: 247 to 250 °C
- IC50 [1]: 1.9 µM
- IC50 [2]: > 31.6 µM
- EC50 [3]: ~20 µM
- IC50 [4]: 9.6 µM
- EC50 [5]: 16 µM
Structure (SMILES): CCNC(=O)Nc1ccc2ncc(Nc3ccc(C)c(NS(C)(=O)=O)c3)nc2n1 [Compound 49, N-{5-[6-(3-Ethylurea)pyrido[2,3-b]pyrazin-3-ylamino]-2-methylphenyl}methanesulphonamide]
